Results from patent US20130303377A1, “USE OF SINGLE AMINO ACIDS AT LOW CONCENTRATIONS FOR INFLUENCING THE LIFE PROCESSES OF CROPS” (GLOBACHEM, priority 2010, published 2013).

Legend:
[1] = tested on: mature apple trees of the variety Jonagold, Jonagored mutant; assay: Increase of both the yield and the coloring with apple, Example 3; format: in vivo
Protocol: This experiment was performed on mature apple trees of the variety Jonagold, Jonagored mutant. Unlike the two previous trials, the focus here is primarily on increasing the yield. To achieve this, the treatments have to be started much earlier in the season. The dose is hereby lower than in the two previous applications because the goal is here fruit set and growth inhibition, instead of coloring. One could suffice with two treatments, at the start of the growing season, but several applications over the entire growing season gives a more certain result. The applications in this test were started around the end of flowering and were repeated every 7 to 14 days, depending on the weather conditions. There were in total 7 treatments, more precisely on April 24, May 7, May 14, May 20, June 9, June 16 and June 24. The sprayings were performed with an atomiser.
Glutamine, each time at a concentration of 50 ppm wt in 300 liter water/ha, and thus a dose of 15 g/ha, was applied both separately and in combination with S-abscisic acid (ABA). In the combination test, ABA was administered at the first 2 sprayings of the season, and always at a concentration of 3.3 ppm in 300 l water/ha spraying liquid, which corresponds to a dosage of 1.0 g/ha of ABA. At the end of the season, the extension of the shoots was measured and the number of fruits per tree determined. Shortly after the end of the sprayings, on June 25, the average fruit diameter was also determined.

Jonagored = assay: Improvement of the coloring with apple, Example 4; format: in vivo; conditions: glutamine 2.5 g/ha, 4 days before the pick
Description: In this experiment, glutamine was applied 4 days before the pick on a plot of Jonagored, and in a concentration of 8.3 ppm wt in 300 l/ha, which is equivalent to a dose of 2.5 g/ha of glutamine. In table 4 below the % of first picking is shown.

[2] = tested on: mature apple trees of the variety Jonagold (mutant King); assay: Improvement of the coloring with apple, Example 1 (glutamine sprayed before picking); format: in vivo; conditions: for kg 1st picking: colored fruits; for Fruit weight: average over the total harvest
Protocol: This experiment was performed on mature apple trees of the variety Jonagold (mutant King). The sprayings were performed with an atomizer at 300 liter of water/ha. The spray liquid used contained in the first test 300 ppm wt of glutamine and in the second test with a multiple treatment each time 150 ppm wt glutamine. The spray liquid further contained surfactants and a UV filter.
apples of the trees in the test field were harvested in 3 times. Glutamine was used as active substance, in a first test 2 weeks before the expected first picking date, and in the second test first 2 weeks and then again 1 week before the expected harvest date. The dosages used are shown below. At harvest, the total yield, the kilos colored fruits which could be harvested in the first picking and the average fruit weight over the total harvest (in grams per apple fruit) were determined. The results are shown in Table 1, and compared with a control without treatment.

Jonagold = assay: Improvement of the coloring with apple, Example 2; format: in vivo
Protocol: In an experiment similar to Example 1, glutamine was used 2 times on Jonagold, the first time 14 days before the picking and then a few days before the picking. The dosage of the treatment was this time 2 times 15 g/ha (each time with a concentration of 50 ppm wt in an atomisation of each time 300 liter of water per hectare). The % first picking was determined and is shown in Table 2, in comparison with a control test without treatment.

wheat seedlings = assay: Growth inhibition with wheat; format: in vivo; conditions: for Growth increase (cm): one treatment; for Growth increase (cm) / % wrt control: after 10 days; for % wrt control: growth increase
Protocol: (§1) This experiment was performed in four repetitions on wheat seedlings. Per repetition six seedlings were sown in a jar and monitored. When the seedlings were about 15 cm high, they were treated once with the following treatments, and after 10 days the growth increase was measured. The dose is given in g/ha whereby the conversion from the concentration was done with a use of 300 l/ha.

plants [3] = assay: Strength of the response to one single amino acid as a function of dosage; format: in vivo; conditions: compared to the intermediate range of 5-15 g/ha
Description: The location of the peaks of the pattern, i.e. at which concentrations the strongest effects could be recorded, and the location of the valley between two peaks, i.e. the range wherein the response was again a little less, appeared however to depend on the choice of the amino acid and of the life process which one wishes to influence.

barley seedlings = assay: Growth inhibition with barley; format: in vivo; conditions: 250 g/ha, after 8 days
Protocol: as §1, with “on barley” for “on wheat”, “Per repetition,” for “Per repetition”, “after 8” for “after 10”, “done at” for “done with”, “300 I/ha.” for “300 l/ha.”

plants [4] = conditions: 500 ppm of glutamic acid; EP 1124419; cited from earlier work
plants [5] = conditions: only glutamic acid; WO 00/25582; cited from earlier work
[6] = glutamine 2 × 45 g/ha, 2 weeks and 1 week before expected harvest date
[7] = glutamine 90 g/ha once, 2 weeks before expected first picking

In the case of NC(=O)CC[C@H](N)C(=O)O [Glutamine, glutamine], the “Average Shoot length (cm)” value ([1]; end of season, glutamine 15 g/ha, 7 treatments) is reported as 25.6 cm, the “Fruit diameter (mm) on June 25” value ([1]; glutamine 15 g/ha, 7 treatments) is reported as 43.7 mm and the “Increase of fruits per tree versus control” value ([1]; glutamine alone, 15 g/ha, 7 treatments) is reported as 14 fruits per tree. The Increased yield ([1]; glutamine alone, extrapolated at 1714 trees/ha and five apples per kilo) was roughly 5000 kg/ha, the Number of fruits ([1]; per tree, glutamine 15 g/ha, 7 treatments from end of flowering) was 127 and the “% 1st picking” value (Jonagored) was 55.8%. The “Difference of first picking versus control” value ([2]; dual treatment (2 × 45 g/ha)) was 3 kg, the “Difference of first picking versus control (% of total harvest)” value ([2]; dual treatment (2 × 45 g/ha)) was 10% and the “1st picking in % of the total harvest” value [2, 6] was 46%. The “kg (total harvest)” value [2, 6] was 39 kg, the “kg 1st picking” value [2, 6] was 18 kg and the “Fruit weight” value ([2]; glutamine 2 × 45 g/ha) was 257 g. The “1st picking in % of the total harvest” value [2, 7] was 41%, the “kg (total harvest)” value [2, 7] was 39 kg and the “kg 1st picking” value [2, 7] was 16 kg. For the same compound, the “Fruit weight” value ([2]; glutamine 90 g/ha once) was 248 g, the “Increase of first picking versus control” value ([2]; single treatment (90 g/ha)) was 1 kg and the “Increase of first picking versus control (% of total harvest)” value ([2]; single treatment (90 g/ha)) was 5%. The “Increase in the first picking, absolute percentage with respect to weight of total harvest” value (Jonagold; double treatment of glutamine, versus control) was “around 10%”, the “Increase of the first-picking portion of the harvest” value (Jonagold; extrapolated at a Jonagold yield of 60 tons/ha) was “at least 6 tons/ha” and the “% 1st picking” value (Jonagold; glutamine 2 × 15 g/ha, 14 days and a few days before the picking) was 40%.
In the case of N[C@@H](Cc1c[nH]cn1)C(=O)O [Histidine, histidine], the “Growth increase (cm)” value (wheat seedlings; 2 g/ha) is reported as 10.0 cm, the “Growth increase (cm)” value (wheat seedlings; 100 g/ha) is reported as 10.2 cm and the “Strength of the growth inhibitory response” value (wheat seedlings; further experiments with only histidine, about 10 g/ha) is reported as “less than in the tests with the lower (2 g/ha) and higher (100 g/ha) dosages”. The “% wrt control” value (wheat seedlings; 2 g/ha) was 92%, the “% wrt control” value (wheat seedlings; 100 g/ha) was 94% and the “Strength of the response as a function of dosage” value (plants [3]) was “higher response in the range of 0.5-5 g/ha and in a range of 15-250 g/ha”.
In the case of CC(C)(C)C(O)(CCc1ccc(Cl)cc1)Cn1cncn1 (stereo not drawn) [Tebuconazole, tebuconazole], the “Growth increase (cm)” value (barley seedlings; one treatment) is reported as 3.2 cm and the “% wrt control” value (barley seedlings; growth increase) is reported as 45%.
For CCOC(=O)C1CC(=O)C(=C(O)C2CC2)C(=O)C1 (stereo not drawn) [Trinexapac-ethyl, trinexapac-ethyl, reference compound], the “Growth increase (cm)” value (wheat seedlings; 250 g/ha) was 7.8 cm and the “% wrt control” value (wheat seedlings; 250 g/ha) was 72%.
For N[C@@H](CCC(=O)O)C(=O)O [glutamic acid], the “Effect on productivity of plants” value (plants [4]) is listed as “only a small effect” and the “Yield of plants versus control test” value (plants [5]) is listed as “did not yield any significant improvement”.
